Counter-ions that a name gives are not always drawn. Like-named read-outs stand apart in the source and are kept apart here.
Assays:
[1] = Solid-state properties of the mono-phosphate salt crystals for galenic formulation; assay type: physicochemical
[2] = USP2 dissolution study at pH 1 and 4.5; assay type: physicochemical
Excerpt: The rate of dissolution is an important factor in the bioavailability of an active pharmaceutical ingredient (API). This is commonly tested using standard conditions e.g. USP 2 dissolution testing. The pH of the aqueous media used can be correlated with the pH of the stomach (low pH −1-2) and the intestines (intermediate acidic pH −4-6). Therefore pH 1 (0.1 M HCl) and a citrate buffer at pH 4.5 (0.2M) are used for the dissolution testing.
The (6aR,9aS)-5,6a,7,8,9,9a-hexahydro-5-methyl-3-(phenylamino)-2-((4-(6-fluoropyridin-2-yl)phenyl)methyl)-cyclopent[4,5]imidazo[1,2-a]pyrazolo[4,3-e]pyrimidin-4(2H)-one mono-phosphate salt crystals are weighed (×4) into size 0 white gelatine capsules at 119 mg per capsule (equivalent to 100 mg API). The (6aR,9aS)-5,6a,7,8,9,9a-hexahydro-5-methyl-3-(phenylamino)-2-((4-(6-fluoropyridin-2-yl)phenyl)methyl)-cyclopent[4,5]imidazo-[1,2-a]pyrazolo[4,3-e]pyrimidin-4(2H)-one is also weighed (×2) into white gelatine capsules at 100 mg per capsule. These capsules are then dissolved using the standard set up of the USP 2 dissolution equipment i.e., in 1000 mL of the relevant aqueous media, stirrers set at 50 rpm, capsules placed in metal coils to weigh them down, media equilibrated with the water bath set at 37″C. Analytical samples are removed via canula, with an initial filter on the canula and secondary filtering through 0.2 micron syringe filters. The samples are then analysed without dilution by HPLC for API content. Calibration for HPLC is run using both the free base API and the phosphate salt.

[3] = Bridging study of monophosphate salt and free base in dog (plasma pharmacokinetics); assay type: in vivo; conditions: po, 40 mg/kg; for half-life: read-out: E Half-life (converted)
Protocol: The mono-phosphate salt of (6aR,9aS)-5,6a,7,8,9,9a-hexahydro-5-methyl-3-(phenylamino)-2-((4-(6-fluoropyridin-2-yl)phenyl)methyl)-cyclopent[4,5]imidazo[1,2-a]pyrazolo[4,3-e]pyrimidin-4(2H)-one is administered to dogs at a dose of 40 mg/kg in gelatin capsules or via oral gavage in a vehicle formulation of HCl-Citrate, pH 3.5, 0.5% methylcellulose in water. […] The analysis of drug concentration in plasma samples collected is analyzed.
The pharmacokinetic (PK) parameters are determined from the plasma concentration versus time data by non-compartmental methods with uniform weighting (PK solutions 2.0™, Summit Research Services, Montrose, Colo.). The maximum observed concentration (Cmax) and the time of the maximum observed concentration (tmax) are obtained from the bioanalytical raw data. The area-under-the-plasma concentration-time curve from time zero to the time of the last measurable sample (AUC_) is calculated by the trapezoidal rule.

[4] = Solubility study of phosphate salt crystals in aqueous media at pH 1.2-6.8; assay type: physicochemical
Protocol: The (6aR,9aS)-5,6a,7,8,9,9a-hexahydro-5-methyl-3-(phenylamino)-2-((4-(6-fluoropyridin-2-yl)phenyl)methyl)-cyclopent[4,5]imidazo[1,2-a]pyrazolo[4,3-e]pyrimidin-4(2H)-one mono-phosphate salt crystals are assessed for its aqueous solubility at lower pH. The (amorphous) free base is also tested for reference at a limited range of pH.
Phosphate (buffer) solutions are made at 50 mM concentration and the pH is adjusted to pH 2, 3, 4, 5 or 6.8 using either 3M phosphoric acid (lower pH) or 3M NaOH (higher pH). 0.1N HCl is also used, pH is measured as 1.2.
20 mg of the (6aR,9aS)-5,6a,7,8,9,9a-hexahydro-5-methyl-3-(phenylamino)-2-((4-(6-fluoropyridin-2-yl)phenyl)methyl)-cyclopent[4,5]imidazo[1,2-a]pyrazolo[4,3-e]pyrimidin-4(2H)-one mono-phosphate salt crystals or free base is weighed into a glass vial, and 2 ml of the relevant aqueous media is added. The vials are shaken. After 1 hr, a sample (˜1 ml) is removed via syringe, and filtered through a syringe filter (0.2 micron) into an HPLC vial. After shaking the suspensions for 16 hours, a second sample is taken. All samples are then diluted with the HPLC diluent by a factor of 1000 (except the pH 6.8 samples which are diluted ×10), and re-analysed by HPLC. In cases where the entire solid dissolved, the 2 ml solution is added to another 20 mg salt or free base.

[5] = female, dog F-1101, oral gavage
[6] = female, dog F-1102, oral gavage
[7] = female, dog F-2102, oral capsule
[8] = pH 5, 50 mM phosphate buffer, diluted 1000 times before HPLC
[9] = pH 6.8, 50 mM phosphate buffer, diluted 10 times before HPLC

## CN1C(=O)c2c(nn(Cc3ccc(-c4cccc(F)n4)cc3)c2Nc2ccccc2)N2C1=N[C@@H]1CCC[C@@H]12 [Phosphate salt, (6aR,9aS)-5,6a,7,8,9,9a-hexahydro-5-methyl-3-(phenylamino)-2-((4-(6-fluoropyridin-2-yl)phenyl)methyl)-cyclopent[4,5]imidazo[1,2-a]pyrazolo[4,3-e]pyrimidin-4(2H)-one]
[1]; general statement
  solubility: good solubility
[1]; solid salt crystals
  hygroscopicity: low hygroscopicity
  stability: particularly stable
[2]; USP 2, pH 1 and pH 4.5
  dissolution rate compared with the free base: better dissolution rates than the free base
[2]; pH 1 (0.1 M HCl), 37 C
  solubility at low pH in dissolution study: good solubility
[2]; pH 1, about 0.1 mg/mL (API equivalent), capsule in 1000 mL, 50 rpm
  time to full dissolution: approximately 15 minutes
[3]; both sexes, Mean, oral capsule
  AUC: 18700 ng·h/mL
  Tmax: 2 h
  half-life: 438 min
[3]; both sexes, Mean, oral gavage
  AUC: 21300 ng·h/mL
  Tmax: 4 h
  half-life: 522 min
[3]; [5]
  AUC: 16200 ng·h/mL
  Cmax: 1080 ng/mL
  Tmax: 4 h
  half-life: 396 min
[3]; [6]
  AUC: 21300 ng·h/mL
  Cmax: 1360 ng/mL
  Tmax: 8 h
  half-life: 330 min
[3]; [7]
  AUC: 20500 ng·h/mL
  Cmax: 1470 ng/mL
  Tmax: 8 h
  half-life: 372 min
[3]; male, dog M-1001, oral gavage
  AUC: 16900 ng·h/mL
  Cmax: 918 ng/mL
  Tmax: 8 h
  half-life: 468 min
[3]; male, dog M-1002, oral gavage
  AUC: 31600 ng·h/mL
  Cmax: 1520 ng/mL
  Tmax: 4 h
  half-life: 720 min
[3]; male, dog M-2001, oral capsule
  AUC: 13200 ng·h/mL
  Cmax: 2430 ng/mL
  Tmax: 2 h
  half-life: 276 min
[3]; male, dog M-2002, oral capsule
  AUC: 21900 ng·h/mL
  Cmax: 1530 ng/mL
  Tmax: 2 h
  half-life: 468 min
[3]; Mean, oral capsule
  Cmax: 1330 ng/mL
[3]; Mean, oral gavage
  Cmax: 1160 ng/mL
[4]; 50 mM phosphate buffer, pH 4, aqueous buffer, thermodynamic from solid, pH 4
  solubility: ≤ 7700 µg/mL
[4]; 50 mM phosphate buffer, pH 4, aqueous buffer, thermodynamic from solid, pH 4, 50 mM phosphate buffer, read-out: Solubility after 1 hr
  solubility at 1 hr: 2500 µg/mL
[4]; 50 mM phosphate buffer, pH 4, aqueous buffer, thermodynamic from solid, pH 4, 50 mM phosphate buffer, read-out: Solubility after 16 hrs
  solubility at 16 hr: 7700 µg/mL
[4]; pH 1.2 (0.1N HCl)
  Solubility after 1 hr: >20 mg/mL
  Solubility after 16 hrs: >20 mg/mL
[4]; pH 2, 50 mM phosphate buffer
  Solubility after 1 hr: 13.6 mg/mL
  Solubility after 16 hrs: 17.0 mg/mL
[4]; pH 3
  solubility compared with the amorphous free base: better solubility than the amorphous free base
[4]; pH 3, 50 mM phosphate buffer
  Solubility after 1 hr: 8.4 mg/mL
  Solubility after 16 hrs: 9.4 mg/mL
[4]; [8]
  Solubility after 1 hr: Below detection limit*
  Solubility after 16 hrs: Below detection limit*
[4]; [9]
  Solubility after 1 hr: Below detection limit*
  Solubility after 16 hrs: Below detection limit*

From patent US9469647B2, “Salt crystals” (INTRA-CELLULAR THERAPIES, INC., priority 2012, dated 2016)
